Assay results as given in patent publication EP1992637A1, “1-Aminocyclopentane-1,3,4- tricarboxylic acids derivatives” (priority 2007, dated 2008).

Legend:
haldol-induced catalepsy = assay: Haldol-induced catalepsy model of Parkinson's disease, bar test; type: in vivo; conditions: mice
Method: The compounds of the invention were evaluated in a model of Parkinson's disease, the haldol-induced catalepsy model in mice. Catalepsy was assessed using the bar test in mice submitted to acute administration of the dopamine D2 receptor antagonist haloperidol (1mg/kg, intraperitoneally or ip). Mice (male RjOrl: Swiss mice, weighing 30 - 35 g at the beginning of the experiment) placed in group of 5 in Plexiglas cages, were injected with haloperidol (1 mg/kg ip). […] The catalepsy response of one mouse was measured as the time the animal maintained an imposed posture with both forelimbs placed on a horizontal 0.9cm-diameter wire bar suspended 4cm above a platform. The end point of catalepsy was considered to occur when both forelimbs were removed from the bar, the mouse climbed onto the bar or if the animal moved its head in an exploratory manner. A cutoff time of 180 seconds was applied. The degree of catalepsy was scored 60 minutes after haloperidol administration and continued at 30 or 60 minutes intervals for a total of 240-300 minutes. Between measurements, the animals were returned to their home cages. This procedure was adapted from the literature: (e.g. Pires et al., Braz J Med and Biol Res 38, 1867-1872, 2005; Shiozaki et al., Psychopharmacology 147, 90-95, 1999). Parent compound and corresponding vehicle, given either intraperitoneally (ip) or orally (po), were administered 30 minutes after haldol administration. Prodrugs and corresponding vehicle were injected 4h before haldol administration. Prodrug dose is expressed in equivalent of parent compound.
Data analysis: the figures 2 and 3 show the mean time of latency spent on the bar for each group of animals. At each time-point, the anti-cataleptic effects of parent compound and prodrugs were compared to vehicle-treated groups using 1-factor ANOVA test followed by the Dunnett's test. Datapoints marked with "*" in figures 3 or 4 indicates p<0.05; "**" indicates p<0.01.

[1] = In vivo pharmacokinetic evaluation (ACPT-I in plasma, LC/MS/MS); conditions: rat, po, 30 mg/kg
[2] = 100mg/kg orally (dose in equivalent of parent compound), given 4h before haldol (1 mg/kg ip)

Row | bioavailability [1] [%] | SMILES | anticataleptic activity (haldol-induced catalepsy; 30mg/kg ip, given 30 minutes after haldol (1 mg/kg ip)) | anticataleptic activity (haldol-induced catalepsy; 100mg/kg oral administration, given 30 minutes after haldol (1 mg/kg ip)) | anticataleptic activity (haldol-induced catalepsy; [2])
1 | 1.14 | N[C@@]1(C(=O)O)C[C@H](C(=O)O)[C@H](C(=O)O)C1 [ACPT-I, (1S, 3R, 4S) -1-aminocyclopentane-1,3,4-tricarboxylic acid] | significantly reduced catalepsy | no anticataleptic activity | 
2 |  | CC(C)C[C@H](N)C(=O)N[C@@]1(C(=O)O)C[C@H](C(=O)O)[C@H](C(=O)O)C1 [Example 1, (1S, 3R, 4S)-1-{[(2'S)-2'-amino-4'-methylpentanoyl]amino}cyclopentane-1,3,4-tricarboxylic acid] |  |  | significantly reduced the haldol-induced cataleptic response
3 |  | C[C@H](N)C(=O)N[C@@]1(C(=O)O)C[C@H](C(=O)O)[C@H](C(=O)O)C1 [Example 3, (1S, 3R, 4S)-1-{[(2'S)-'2-aminopropanoyl]amino}cyclopentane-1,3,4-tricarboxylic acid] |  |  | significantly reduced the haldol-induced cataleptic response
